Measurements published in US20130287856A1, “Drug Delivery Dispersion And Film Formed Therefrom” (priority 2010, published 2013).

Assay: Extractable percent of unreacted silicone, second evaluation (cure rate with active agents)
Type: physicochemical
Details: for Cure Rate After 3 Min. (%) / Cure Rate After 120 Min. (%): active agent added to Dispersion 1 aged 1 week at 45° C., slope of extractable plot, lower values = higher reactivity; for effect of active agent on cure (in words): active agent in Dispersion 1, after 120 minutes
Protocol: After ageing, the samples are spread out onto silicon free Glassine paper and the water is allowed to evaporate such that the vinyl PDMS and SiH siloxane reaction and form films. More specifically, about 2 grams of each sample is spread using a 1.2 g/m^2 bar equipped with an automatic film application (type 4340 from Braive Instruments). At times from zero to 120 minutes, the percent of vinyl PDMS and SiH siloxane is determined using 30 ml of methylisobutyl ketone (MIBK). Additionally, silicone concentration on the Glassine paper resulting from reacted vinyl PDMS and SiH siloxane is determined by XRF using an Oxford Lab X-3000. The percent unreacted/extractable vinyl PDMS and SiH siloxane is plotted in an extractable plot set forth as FIG. 3. Additional samples of Dispersion 1 are aged for 1 week at 45° C. […] At this point, films are formed from these samples to determine an effect of the active agents on curing and reaction of the vinyl PDMS and SiH siloxane. More specifically, for these samples, an additional extractable plot is generated (not shown in the Figures) using the same method as described above. […] The results of these evaluations are set forth in Table 1 immediately below with lower values representing higher reactivity.

SMILES | Cure Rate After 3 Min. (%) | Cure Rate After 120 Min. (%) | effect of active agent on cure (in words)
Cn1c(=O)c2c(ncn2C)n(C)c1=O [Caffeine, caffeine] | 31.7 | 8.5 | 
CC(C)(CO)[C@@H](O)C(=O)NCCCO [Dexpanthenol, dexpanthenol] | 18.4 | 4.8 | 
CCN(CC)CC(=O)Nc1c(C)cccc1C [Lidocaine, lidocaine] | 21.1 | 4.9 | 
O=C(O)c1ccccc1O [Salicylic acid, salicylic acid] | 36.5 | 12.1 | slight inhibition of the cure
O=C(O)c1cccnc1 [Vitamin B3, vitamin B3] | 43.3 | 21.8 | slight inhibition of the cure

More lines, now with the values ahead:

Cure Rate After 3 Min. (%) | Cure Rate After 120 Min. (%) | effect of active agent on cure (in words) | SMILES
16.4 | 3.3 |  | [Cl][Ag] [AgCl]
25.7 | 5.4 |  | Clc1ccccc1C(c1ccccc1)(c1ccccc1)n1ccnc1 [Clotrimazol, clotrimazol]
